Experimental data: US9060966B2, “Use of 2,5-dihydroxybenzene derivatives for the treatment of arthritis and pain” (priority 2006, dated 2015)

Key:
[1] = tested on: human retinal endothelial cells (HREC); experiment: Proliferation of human retinal endothelial cells (HREC, crystal violet); type: cell-based; settings: 72 h
Method: (§1) 2A-5HBS was administered or not administered (control) after seeding the HREC in 24-well plates (7.5×10^3 per well) until they were fixed after 72 hours. The data are expressed as the mean±SEM of the percentage of the absorbance at 595 nm obtained in the control cultures, which is proportional to the number of cells stained with crystal violet. The data were obtained from 6 cultures for each treatment in two separate experiments. The white bar represents the value of the control cells, whereas the gray bars show the value in the presence of 2A-5HBS (500 and 1000 μM). * indicates p<0.05, *** p<0.001 with respect to the control by means of a single-factor analysis of variance (ANOVA) followed by a Student-Newman-Keuls post-analysis.
as §1, with “5A-2HBS” for “2A-5HBS”, “striped” for “gray”, “***” for “*”, “indicates” for “indicates p<0.05, ***”
2,5-DHCME was administered or not administered (control) after seeding the HREC in 24-well plates (7.5×10^3 per well) until they were fixed after 72 hours. The data are expressed as the mean±SEM of the percentage of the absorbance at 595 nm obtained in the control cultures, which is proportional to the number of cells stained with crystal violet. The data were obtained from 6 cultures for each treatment in two separate experiments.
Primary cultures of human retinal endothelial cells (HREC) were used. Cells were obtained from Cell Systems (Virginia, USA) and subcultured with CSC complete medium (Cell Systems). Cells at 2 to 5 passages were seeded in 24-well plates at 7,500 cells/well density and, once attached, the cells were treated o not treated (controls) with 2A-5HBS (500 and 1000 μM) or 5A-2HBS (500 and 1000 μM) and they were allowed to proliferate for 72 hours, with daily medium changes. After that, the proliferation of HREC was evaluated by staining the fixed cells with crystal violet. The number of cells is proportional to the amount of retained dye, which was spectrophotometrically determined by measuring absorbance at 595 nm after removing the dye from the cells. Data are expressed as the percentage of absorbance at 595 nm obtained in control conditions. Data were obtained from two different experiments performed in triplicate.
Primary cultures of human retinal endothelial cells (HREC) were used. Cells were obtained from Cell Systems (Virginia, USA) and subcultured with CSC complete medium (Cell Systems). […] After that, the proliferation of HREC was evaluated by staining the fixed cells with crystal violet. The number of cells is proportional to the amount of retained dye, which was spectrophotometrically determined by measuring absorbance at 595 nm after removing the dye from the cells. Data are expressed as the percentage of absorbance at 595 nm obtained in control conditions. […]

[2] = tested on: corneal neovascularization; experiment: Topical treatment of human corneal neovascularization; type: in vivo; settings: 5% solution of potassium salt, 4 drops a day topical, 19 days, one patient
Description: Photographs showing the presence of corneal neovascularization in a patient before being treated (A) and after 19 days of topical application of a solution containing 5% of potassium 2,5-dihydroxybenzoate (B). The treatment consisted of daily topical application of 4 drops of such solution.
4 drops a day were topically applied in a patient that presented a corneal neovascularization process refractory to any type of previous treatment.

[3] = biological target: T1, fibroblast growth factor-1 (FGF-1) (Homo sapiens, UniProt P05230); experiment: Co-crystallisation with FGF-1 (crystal diffraction of complexes); type: binding; settings: for acetoxyl groups of the compound when bound to the protein: electron density contoured at 1σ; for binding site on FGF-1 in the crystal complex: reference: site of 2,5-dihydroxybenzene sulfonic acid, lysine 132
Description: (§2) FIG. 24. 2-acetoxy-5-hydroxybenzenesulfonic acid co-crystallized with fibroblast growth factor-1. […] The compound occupies a place that is very close to that described occupied by 2,5-dihydroxybenzenesulfonic acid, the aromatic ring of which forms a cation-σ bond with the N^ε group of lysine 132, which is marked in panel A as reference. […] In panels A and B, the protein surface is colored according to its electrostatic potential (light grey: negative charge; dark grey: positive charge; white: lack of charge).
as §2, with “25. 5-acetoxy-2-hydroxybenzenesulfonic” for “24. 2-acetoxy-5-hydroxybenzenesulfonic”, “cation-π” for “cation-σ”
as §2, with “26. 2,5-diacetoxybenzenesulfonic” for “24. 2-acetoxy-5-hydroxybenzenesulfonic”, “cation-π” for “cation-σ”
Based on the crystal diffraction of the FGF-1:2-acetoxy-5-hydroxybenzene sulfonic acid, FGF-1:5-acetoxy-2-hydroxybenzene sulfonic acid and FGF-1:2,5-diacetoxybenzene sulfonic acid complexes, the structures of the complexes were calculated and represented. FIGS. 24, 25 and 26, which show the surface of the dyed protein according to its electrostatic potential (light grey: negative charge; dark grey: positive charge; white: lack of charge), show the manner in which 2-acetoxy-5-hydroxybenzene sulfonic acid, 5-acetoxy-2-hydroxybenzene sulfonic acid and 2,5-diacetoxybenzene sulfonic acid interact, respectively, with FGF-1.

rat C6 glioma cells = experiment: Proliferation of rat glioma C6 cells (crystal violet); type: cell-based; settings: 500 μM, 48 h
Method: FIG. 23. […] 5A-2HBS and 2A-5HBS were administered or not (control) after seeding C6 cells in 24 well plates (10^4 per well) until they were fixed 48 hours later. Data are expressed as the mean±SEM of the percentage of absorbance at 595 nm obtained in control cultures, which is proportional to the number of cells stained with crystal violet. Data were obtained from 3 cultures for each treatment and 6 control cultures.
The cell line used was the C6 cell line and the experiment was carried out as described in examples 2 and 3. Once adhered, the cells were treated or not (controls) with (5A-2HBS) (500 μM) or (2A-5HBS) (500 μM) and they were allowed to proliferate for 48 h. After this time the glioma cell proliferation was evaluated by means of staining the fixed cells with crystal violet. The number of cells is proportional to the amount of retained dye, which was determined spectrophotometrically by measuring the absorbance at 595 nm once the dye was extracted from the cells.

[4] = biological target: T1, fibroblast growth factor-1 (FGF-1); experiment: Inhibition of fibroblast mitogenesis induced by FGF-1 in Balb/c 3T3 fibroblasts; type: cell-based; parameters: host or cells: added to Balb/c 3T3 fibroblasts (mouse); settings: quiescent Balb/c 3T3 cultures; potassium salts, except 2-acetoxy-5-hydroxybenzene sulfonate as calcium salt
Method: The evaluated compounds were used in the form of potassium salt, except in the first case in which calcium salt was used. The experiments were carried out as described in Fernandez-Tornero C et al. J Biol Chem, 2003.

Leishmania major = experiment: Experimental infection with Leishmania major in a mouse model (paw thickness); type: in vivo, mice; settings: 200 mg/kg/day i.p. for 14 days from third week after infection, effect from the eighth week
Description: (§3) The vehicle group consisted of infected animals that received daily injections of saline (0.9% NaCl) during the same period as DHBS. Results are expressed as the mean±the standard deviation of the increases in size of the inoculated paw (right) compared to the non-inoculated paw (left) in mm obtained with a Vernier caliper each week from 0 to 10. ** indicates p<0.01 vs. the vehicle-treated group by a Student t-test. 6 animals were used for each group.
as §3, with “from” for “during”, “moment of the infection, while the control group consisted of non-infected animals.” for “same period as DHBS.”, “9. *” for “10. **”, “p<0.05” for “p<0.01”, “vehicle” for “vehicle-treated”, “7” for “6”
as §3, with “from” for “during”, “third week after the infection.” for “same period as DHBS.”, “9. *” for “10. **”, “p<0.05” for “p<0.01”, “vehicle” for “vehicle-treated”, “7” for “6”
This model is based in the massive inoculation of Leishmania promatigotes in the mouse paw pad. Under these conditions, the parasite induces a progressive inflammation correlated with the multiplication of parasites at the site of inoculation. BALB/c strain female mice that developed severe and uncontrolled injuries were used (Foote S J, Handman E. Brief Funct Genomic Proteomic, 2005). This model has been used in pharmacology to monitor the therapeutic capacity of new leishmanicide compounds and the preventive capacity of potential vaccines against leishmaniasis ((Nelson K G et al. Antimicrob Agents Chemother. 2006).
The animals were inoculated with 5×10^6 of L. major promastigotes (strain Hervás) in 50 μL of PBS into the plantar pad of the right back paw. As negative control of the infection, a group of mice inoculated with 50 μL of PBS was used. The sizes of the lesions were measured every 7 days until the animals were sacrificed (week 9) using a Vernier caliper. The thickness of the right back paw (infected) and the left back paw (uninfected) of all the animals was measured at the base of the fifth toe. The progression of the inflammation is represented as the difference in thickness between the infected and the non-infected paws. […]

T1 sequence (P05230 whole entry, species assumed): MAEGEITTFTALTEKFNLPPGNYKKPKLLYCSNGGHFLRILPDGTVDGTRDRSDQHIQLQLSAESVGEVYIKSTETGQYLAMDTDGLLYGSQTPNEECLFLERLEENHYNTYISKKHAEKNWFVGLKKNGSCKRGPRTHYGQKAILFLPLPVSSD

## COC(=O)C=Cc1cc(O)ccc1O [2,5-DHCME, 2,5-dihydroxycinnamic acid methyl ester]
[1]; 50 μM
  HREC proliferation: significant inhibition
[1]; 100 μM
  HREC proliferation: significant inhibition

## O=C([O-])c1cc(O)ccc1O.[K+] [2,5-dihydroxybenzoate, potassium 2,5-dihydroxybenzoate]
[2]
  degree of corneal vascularization: remarkable reduction in the degree of corneal vascularization
[2]; listed as 2,5-dihydroxybenzoic acid
  degree of corneal vascularization: noticeable reduction in the degree of corneal vascularization

## CC(=O)Oc1ccc(O)cc1S(=O)(=O)[O-].[K+] [2A-5HBS, potassium 2-acetoxy-5-hydroxybenzene sulfonate]
[3]
  acetoxyl groups of the compound when bound to the protein: conserve the acetoxyl groups
  binding site on FGF-1 in the crystal complex: a site that is very close to the one that has been described occupied by 2,5-dihydroxybenzene sulfonic acid
Rat C6 glioma cells
  rat glioma cell proliferation: inhibition
[1]; 500 μM
  HREC proliferation: significant inhibition
[1]; 1000 μM
  HREC proliferation: significant inhibition

## CC(=O)Oc1ccc(O)c(S(=O)(=O)[O-])c1.[K+] [5A-2HBS, potassium 5-acetoxy-2-hydroxybenzenesulfonate]
[3]
  acetoxyl groups of the compound when bound to the protein: conserve the acetoxyl groups
  binding site on FGF-1 in the crystal complex: a site that is very close to the one that has been described occupied by 2,5-dihydroxybenzene sulfonic acid
[4]
  FGF-1 induced mitogenesis: Inhibition
Rat C6 glioma cells
  rat glioma cell proliferation: inhibition

## O=S(=O)([O-])c1cc(O)ccc1O.[K+] [potassium 2,5-dihydroxybenzenesulfonate]
[4]
  FGF-1 induced mitogenesis: Inhibition
Leishmania major
  increase of paw thickness / size of the lesion (infected vs non-infected paw): Reduction in the size of the lesion
Leishmania major; listed as potassium 2,5-dihydroxybenzene sulfonate
  increase of paw thickness / size of the lesion (infected vs non-infected paw): significant reduction in the increase of paw thickness

## calcium 2-acetoxy-5-hydroxybenzenesulfonate
[4]
  FGF-1 induced mitogenesis: Inhibition
